Tested on: E. Coli B
Test: Antimicrobial sensitivity test by resistance signature (pulsed-voltage sampling)
Assay type: cell-based
Conditions: 0.9 mL of 10^3 CFU/mL E. Coli B in LB Broth + 0.1 mL antibiotic, room temperature; control slope remains negative; FIGS. 7A-7D
Protocol: FIGS. 7A-7D depict signatures of microbial sample of 0.9 mL of a concentration of 10^3 CFU/mL of two-hour E. Coli B treated with 0.1 mL of antibiotics or antimicrobials and control samples in the absence thereof. What is common to all FIGS. 7A-7D is the slope for signatures with antibiotics or antimicrobials become positive, i.e., the resistance of the microbial sample increases, upon addition of the antibiotic or antimicrobial. The slope of the control samples remains negative.
In further detail, a difference in the degree of the slope change for the signature can be observed. Such differences are due to the type of antibiotic or antimicrobial, and its mechanism of action. For example, sulfamethoxazole, FIG. 7C, causes inhibition of DNA synthesis in the cell, thereby aiming essential cell functions. In contrast, azithromycin, FIG. 7B, inhibits […] in a bacterium, thereby acting on latent cell functions.
An overnight bacterial culture of E. coli B with a concentration of around 10^9 cells which had attained room temperature were diluted using LB Broth which had also attained room temperature to a final concentration of 10^3 cells. 0.9 ml of this solution was then placed into one sensor well which was connected to lead #1 of a reader unit. An additional 0.9 ml of the bacteria was placed into a second sensor well which was connected to lead #2 of a reader unit. […]

Cc1cc(NS(=O)(=O)c2ccc(N)cc2)no1 [sulfamethoxazole]
slope of the resistance signature upon addition of the antibiotic or antimicrobial: steeper than for azithromycin

Reference: patent publication US20130183459A1, “DEVICE AND METHOD FOR I[…] AND COUNTING MICROBES AND DETERMINING ANTIMICROBIAL SENSITIVITY” (priority 2011, published 2013)
